Assay results taken from patent US7022315B2, “Administration of a thiol-based chemoprotectant compound” (Oregon Health & Science University, priority 2000, dated 2006).
≈ marks a conversion by molar mass, not a printed value. Read-outs that look alike come from different tables or passages of the source.

Columns and labels:
cultured tumor cells = experiment: Paclitaxel cytotoxicity with BSO and NAC (WST); format: cell-based
LX-1 SCLC cells = experiment: cells; conditions: for EC50: average ± pooled sd of two experiments
Description: Cytotoxicity was assessed in cultured LX-1 SCLC cells, 1×10^4 cells per well in 96 well plates, using the WST colorometric assay. […] Chemoprotectant was added at the indicated concentration of N-acetylcysteine shown in FIG. 3A or D-methionine shown in FIG. 3B either alone (n) or immediately following chemotherapy. Data are expressed as the percentage of live cells compared to untreated control samples (without chemotherapy) and each point represents the mean±standard deviation of 4 wells.
The dose/response for rescue from chemotherapy cytotoxicity was evaluated for four different small molecular weight sulfur containing chemoprotectants.
Chemotherapy agents were fixed at the 90% lethal dose for each agent. Each EC50 measurement comprised 6 concentrations with 4 wells per concentration, and each dose response was performed twice for each protectant. EC50 concentrations, in μg/ml are reported as the average±pooled standard deviation for two independent experiments.

[1] = Radiolabeled NAC tissue delivery by route of administration; format: in vivo, rat; conditions: for 14C-NAC found in brain: Example 10
Description: Radiolabeled NAC in combination with unlabeled low dose NAC (140 mg/kg) or high dose NAC (1200 mg/kg) was administered to rats with the following routes of infusion: i.v. (open bars), intra-arterially into the right carotid artery (striped bars), intra-arterial via the left carotid artery with left internal artery occlusion (aortic infusion) (black bars), and intra-arterial (right carotid) with BBBD (cross hatched bars). Radiolabel in tissue homogenates is expressed as the mean and standard error of the % administered dose of 14C-NAC per gram of tissue (n=3 rats per group). Significant differences from i.v. delivery are indicated by *P<0.05 and **P<0.001.
In this experiment, radiolabeled NAC was administered to rats by three different routes. Liver and kidney tissue, in addition to the ipsilateral and contralateral hemispheres of the brain, were analyzed for radioactivity. Results are shown as the percent of the injected radioactive dose per gram of tissue. Route indicates intravenous (i.v.), intra-arterial into the right carotid artery (i.a.), or left carotid with internal artery occlusion and aortic infusion (left carotid aortic infusion). The left carotid aortic infusion intra-arterial method uses descending aorta placement of the catheter tip and NAC administration.
This example tested whether the inventive method for intra-arterial infusion (via the left carotid artery, with left internal artery occlusion) could reduce brain delivery of NAC and increase systemic delivery. Brain delivery was 0.04% of the injected dose with the inventive method (n=2).
The method of administration of NAC and its biodistribution was tested. Intra-arterial infusion retrograde via the left external carotid artery, with transient left internal artery occlusion, was evaluated as a mechanism to essentially perfuse via the descending aorta with limited delivery to the brain. […] The serum concentration of NAC 10 min after administration of 1200 mg/kg was 2.4 0.6 mg/ml (n=6) as determined by radiolabel remaining in the blood.

B.5 LX-1 cells [2] = experiment: cells
Description: FIGS. 4A and 4B show cytoenhancement and chemoprotection. […] Cytotoxicity was assessed in cultured LX-1 SCLC cells, 1×10^4 cells per well in 96 well plates, using the WST colorometric assay. BSO cytoenhancement consisted of preincubation at 100 μM BSO for 18 hours. The chemoprotective agent was added immediately after chemotherapy. The experimental conditions were dose/responses for chemotherapy (carboplatin or etoposide phosphate) alone (m), BSO cytoenhancement ( ? ), N-acetylcysteine rescue, (1000 μg/ml N-acetylcysteine, n), or BSO cytoenhancement and N-acetylcysteine rescue (u). Data are expressed as the percentage of live cells compared to untreated control samples without chemotherapy and each point represents the mean±standard deviation of 4 wells.
The effects of BSO cytoenhancement and thiol chemoprotection on the dose/response relationships for cytotoxicity of the alkylating chemotherapeutics were evaluated in the B.5 LX-1 cells. BSO cytoenhancement consisted of preincubation with 100 μM BSO for about 18–24 hours prior to addition of chemotherapy, and rescue consisted of 1000–2000 μg/ml of thiol chemoprotectant added immediately after chemotherapy.
Cytoenhancement and chemoprotection against non-alkylating chemotherapeutic agents was also evaluated.
Half-maximal cytotoxic concentrations (EC50) are expressed as μg/ml. Each EC50 measurement comprised 6 concentrations with 4 wells per concentration, and each dose response was performed in triplicate for each chemotherapeutic agent. Data are reported as the mean±pooled standard deviation for three independent experiments. P values are shown for the reduction in EC50 by BSO treatment (*=P<0.05, **=P<0.01, ***=P<0.001).

[3] = administered intravenously; cited from earlier work
B.5 LX-1 cells [4] = experiment: In situ TUNEL staining for DNA fragmentation; format: cell-based; conditions: melphalan 10 μg/ml, N-acetylcysteine 1000 μg/ml
Description: (§1) FIGS. 7A and 7B show the effect of cytoenhancement and chemoprotection on apoptosis. […] Apoptosis was assessed in cultured LX-1 SCLC cells pretreated for 18 hours with or without 100 μM BSO. The experimental conditions were no addition (open bars), melphalan (10 μg/ml, striped bars) or melphalan (10 μg/ml) plus N-acetylcysteine (1000 μg/ml) (cross hatched bars) for 20 h prior to harvest. Caspase-2 activity is expressed as percentage activity in untreated control samples (mean±standard deviation, n=3). TUNEL staining is expressed as the percentage of cells showing positive staining.
(§2) Apoptosis was evaluated by measuring Caspase-2 enzymatic activity and by in situ TUNEL staining. […] The increase in caspase activity was variable between experiments and ranged from 50–100% at 7–8 h to 250–600% at 20–24 h after treatment with melphalan. […] In the experiment shown in FIG. 7B, TUNEL staining after melphalan treatment was positive in 29 of 3643 cells, compared to 7 of 4395 cells in the untreated control, and BSO treatment prior to melphalan increased the positive staining to 800 of 1699 cells. […] In both assays, activity was maximal with low doses of melphalan, or with a 1 hour pulse treatment with the doses used in the cytotoxicity assays.

[5] = tested on: Caspase-2 activity in B.5 LX-1 cells; experiment: Caspase-2 enzymatic activity (apoptosis); format: cell-based
Description: as §1, §2
Samples of the cells used in the caspase and TUNEL assays were also evaluated for membrane permeability by trypan blue exclusion.

[6] = tested on: patients with moderate renal insufficiency; conditions: approximately 1200 mg per day orally, day before and day of contrast agent; computed tomography; cited from earlier work
[7] = route left carotid aortic infusion, n=2

## CC(=O)N[C@@H](CS)C(=O)O [NAC, N-acetylcysteine]
Cultured tumor cells
  effect on BSO-enhanced paclitaxel toxicity: completely reversed the enhanced toxicity
  effect on the dose response for paclitaxel alone: did not change the dose response
LX-1 SCLC cells
  reduction of the cytotoxicity of each alkylator: 75–90%
LX-1 SCLC cells; on a μg/ml basis
  relative effectiveness among the thiol agents tested: most effective
LX-1 SCLC cells; read-out: Chemoprotective agent EC50, protection against carboplatin 200 μg/ml (about 90% lethal dose)
  EC50: 200 ± 15 µg/mL (≈ 1230 µM)
LX-1 SCLC cells; read-out: Chemoprotective agent EC50, protection against cisplatin 15 μg/ml (about 90% lethal dose)
  EC50: 151 ± 15 µg/mL (≈ 925 µM)
LX-1 SCLC cells; read-out: Chemoprotective agent EC50, protection against melphalan 20 μg/ml (about 90% lethal dose)
  EC50: 74 ± 18 µg/mL (≈ 453 µM)
[1]; 10 min after administration of 1200 mg/kg, radiolabel remaining in the blood, n=6
  serum concentration of NAC: 2400 µg/mL
[1]; aortic infusion
  14C-NAC found in brain: minimized brain delivery
[1]; i.v.
  14C-NAC found in brain: negligible amounts
[1]; intra-arterial, right internal carotid artery
  14C-NAC found in brain: high levels of radiolabel in the right cerebral hemisphere
[1]; high dose (1200 mg/kg) NAC, data not shown
  liver and kidney delivery with aortic infusion: no change in liver and kidney delivery
[1]; intra-arterial infusion via the left carotid artery with left internal artery occlusion, n=2
  Brain delivery: 0.04 % of the injected dose
[1]; low dose of NAC (140 mg/kg)
  liver and kidney delivery with aortic infusion: decreased liver delivery and increased kidney delivery
[1]; route i.a. into the right carotid artery, n=3
  left hem: 0.03% of the injected radioactive dose per gram of tissue
[1]; route i.v., left brain hemisphere, n=2
  left hem: 0.02% of the injected radioactive dose per gram of tissue
[1]; route i.v., n=2
  kidney: 0.72% of the injected radioactive dose per gram of tissue
  liver: 0.59% of the injected radioactive dose per gram of tissue
[1]; [7]
  kidney: 1.42% of the injected radioactive dose per gram of tissue
  left hem: 0.04% of the injected radioactive dose per gram of tissue
  liver: 0.29% of the injected radioactive dose per gram of tissue
  right hem: 0.04% of the injected radioactive dose per gram of tissue
B.5 LX-1 cells [2]
  effect on BSO-enhanced taxol cytotoxicity: completely reversed
[3]
  brain levels: < 5%
B.5 LX-1 cells [4]
  effect on melphalan-induced TUNEL staining: reduced
[5]
  effect on cisplatin- or carboplatin-induced caspase activity: no reduction in caspase enzymatic activity could be detected
[5]; melphalan 10 μg/ml, N-acetylcysteine 1000 μg/ml
  effect on melphalan-induced Caspase-2 activity: reduced
[6]
  effect on renal function after radiographic contrast agent: prevented the expected decline in renal function
